Measurements: ChEMBL document CHEMBL1143615, “Synthesis and structure-activity relationship of fluoro analogues of 8-{2-[4-(4-methoxyphenyl)piperazin-1yl]ethyl}-8-azaspiro[4.5]decane-7,9-dione as selective alpha(1d)-adrenergic receptor antagonists” (J Med Chem, 2005)

What was measured:
D(2) dopamine receptor = D(2) dopamine receptor (Homo sapiens, UniProt P14416); test: Binding affinity for human Dopamine receptor D2
D(3) dopamine receptor = D(3) dopamine receptor (Rattus norvegicus, UniProt P19020); test: Binding affinity for rat Dopamine receptor D3
[1] = biological target: T1, Alpha-1A adrenergic receptor (Homo sapiens, UniProt P35348); test: Binding affinity for human Alpha-1A adrenergic receptor
T1 sequence (P35348 whole entry): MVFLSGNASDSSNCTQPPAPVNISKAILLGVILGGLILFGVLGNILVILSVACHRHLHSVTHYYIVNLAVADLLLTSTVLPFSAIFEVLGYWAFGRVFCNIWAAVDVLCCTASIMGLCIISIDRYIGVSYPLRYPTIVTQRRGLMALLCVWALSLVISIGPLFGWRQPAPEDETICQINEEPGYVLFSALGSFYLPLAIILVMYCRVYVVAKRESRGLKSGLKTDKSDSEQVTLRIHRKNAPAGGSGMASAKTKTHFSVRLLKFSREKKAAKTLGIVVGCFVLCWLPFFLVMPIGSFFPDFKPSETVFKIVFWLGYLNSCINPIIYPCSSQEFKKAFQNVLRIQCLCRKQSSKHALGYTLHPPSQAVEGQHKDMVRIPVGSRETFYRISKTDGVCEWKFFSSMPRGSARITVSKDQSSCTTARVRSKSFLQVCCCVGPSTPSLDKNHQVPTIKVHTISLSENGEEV

[2] = biological target: T2, Alpha-1B adrenergic receptor (Homo sapiens, UniProt P35368); test: Binding affinity for human Alpha-1B adrenergic receptor
T2 sequence (P35368 whole entry): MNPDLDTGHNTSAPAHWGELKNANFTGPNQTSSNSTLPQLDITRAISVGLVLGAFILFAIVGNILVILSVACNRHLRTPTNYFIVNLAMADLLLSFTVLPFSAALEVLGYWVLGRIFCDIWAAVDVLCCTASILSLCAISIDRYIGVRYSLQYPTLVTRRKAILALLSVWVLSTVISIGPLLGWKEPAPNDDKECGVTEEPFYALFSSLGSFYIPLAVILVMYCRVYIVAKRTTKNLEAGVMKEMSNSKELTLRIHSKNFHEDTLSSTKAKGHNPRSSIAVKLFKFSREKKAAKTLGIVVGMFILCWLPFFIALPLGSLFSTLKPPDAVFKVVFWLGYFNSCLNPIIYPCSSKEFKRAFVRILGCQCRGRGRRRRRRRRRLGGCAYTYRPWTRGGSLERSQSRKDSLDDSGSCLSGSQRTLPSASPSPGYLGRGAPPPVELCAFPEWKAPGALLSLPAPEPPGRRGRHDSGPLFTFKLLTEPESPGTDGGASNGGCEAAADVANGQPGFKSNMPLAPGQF

[3] = biological target: T3, 5-hydroxytryptamine receptor 1A (Homo sapiens, UniProt P08908)
T3 sequence (P08908 whole entry): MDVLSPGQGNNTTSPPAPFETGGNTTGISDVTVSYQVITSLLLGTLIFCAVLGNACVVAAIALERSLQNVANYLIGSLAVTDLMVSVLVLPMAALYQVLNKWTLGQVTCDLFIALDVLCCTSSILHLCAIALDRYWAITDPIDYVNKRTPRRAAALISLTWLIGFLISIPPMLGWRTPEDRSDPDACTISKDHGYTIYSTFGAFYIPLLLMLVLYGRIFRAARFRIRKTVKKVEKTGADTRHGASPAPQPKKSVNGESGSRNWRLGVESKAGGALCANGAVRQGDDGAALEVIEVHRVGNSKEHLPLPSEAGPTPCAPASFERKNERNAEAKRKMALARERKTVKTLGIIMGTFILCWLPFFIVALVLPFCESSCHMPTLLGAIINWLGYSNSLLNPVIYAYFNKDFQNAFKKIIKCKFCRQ
Description: Binding affinity for human 5-hydroxytryptamine 1A receptor

[4] = biological target: T4, Alpha-1D adrenergic receptor (Homo sapiens, UniProt P25100); test: Binding affinity for human Alpha-1D adrenergic receptor
T4 sequence (P25100 whole entry): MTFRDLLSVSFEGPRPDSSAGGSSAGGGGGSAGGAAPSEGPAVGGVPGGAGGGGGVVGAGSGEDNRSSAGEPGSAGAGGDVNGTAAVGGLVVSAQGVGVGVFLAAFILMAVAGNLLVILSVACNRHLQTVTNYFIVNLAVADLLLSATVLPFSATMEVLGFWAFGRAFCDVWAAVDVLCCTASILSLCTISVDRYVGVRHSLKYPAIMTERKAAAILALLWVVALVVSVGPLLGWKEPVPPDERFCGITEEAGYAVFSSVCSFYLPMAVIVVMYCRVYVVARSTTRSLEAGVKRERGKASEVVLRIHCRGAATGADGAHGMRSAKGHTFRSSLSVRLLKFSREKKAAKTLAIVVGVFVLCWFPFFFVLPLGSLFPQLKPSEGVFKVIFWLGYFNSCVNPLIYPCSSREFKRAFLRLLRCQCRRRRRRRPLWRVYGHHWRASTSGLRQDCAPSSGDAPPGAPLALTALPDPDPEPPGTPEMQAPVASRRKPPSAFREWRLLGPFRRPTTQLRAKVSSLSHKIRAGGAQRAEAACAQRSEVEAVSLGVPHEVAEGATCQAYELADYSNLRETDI

Sequence of D(3) dopamine receptor (P19020 whole entry): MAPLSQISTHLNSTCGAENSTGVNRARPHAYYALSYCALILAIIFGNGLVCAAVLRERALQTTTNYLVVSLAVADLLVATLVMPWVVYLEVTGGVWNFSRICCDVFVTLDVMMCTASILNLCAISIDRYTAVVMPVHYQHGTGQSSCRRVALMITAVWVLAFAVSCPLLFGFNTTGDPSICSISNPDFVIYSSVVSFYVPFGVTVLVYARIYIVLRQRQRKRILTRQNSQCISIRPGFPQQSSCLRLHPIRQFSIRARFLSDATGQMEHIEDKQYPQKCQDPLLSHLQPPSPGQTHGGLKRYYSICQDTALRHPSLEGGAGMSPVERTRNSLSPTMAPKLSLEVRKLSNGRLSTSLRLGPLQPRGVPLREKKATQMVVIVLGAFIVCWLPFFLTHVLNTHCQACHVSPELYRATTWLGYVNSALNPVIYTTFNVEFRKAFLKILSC
Sequence of D(2) dopamine receptor (P14416 whole entry): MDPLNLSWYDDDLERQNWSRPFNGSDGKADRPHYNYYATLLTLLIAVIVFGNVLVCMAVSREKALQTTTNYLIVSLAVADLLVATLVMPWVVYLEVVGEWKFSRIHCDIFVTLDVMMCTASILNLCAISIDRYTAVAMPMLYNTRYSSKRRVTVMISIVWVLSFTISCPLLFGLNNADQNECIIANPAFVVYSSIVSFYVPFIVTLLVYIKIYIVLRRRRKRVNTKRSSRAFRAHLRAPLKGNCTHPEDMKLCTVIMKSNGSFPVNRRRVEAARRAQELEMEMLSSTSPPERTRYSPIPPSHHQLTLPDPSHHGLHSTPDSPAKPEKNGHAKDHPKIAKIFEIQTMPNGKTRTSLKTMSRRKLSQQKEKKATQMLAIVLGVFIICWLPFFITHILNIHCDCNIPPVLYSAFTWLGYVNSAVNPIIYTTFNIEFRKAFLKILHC

Row | Ki (D(2) dopamine receptor) [nM] | Ki (D(3) dopamine receptor) [nM] | Ki [1] [nM] | Ki [2] [nM] | Ki [3] [nM] | Ki [4] [nM] | SMILES
1 | 2200 | 160 | 4100 | 1400 | 55 |  | O=C1CC2(CCCC2)CC(=O)N1CCN1CCN(c2ccc(F)c(F)c2)CC1
2 | 140 | 5.2 |  | 67 |  |  | O=C1CC2(CCCC2)CC(=O)N1CCN1CCN(c2ccccc2F)CC1
3 | 700 | 23 | 4400 | 380 | 360 | 1.9 | O=C1CC2(CCCC2)CC(=O)N1CCN1CCN(c2cc(F)c(F)cc2F)CC1
4 | 580 | 120 | 14000 |  |  |  | C[C@H](CN1CCN(c2cc(F)c(F)cc2F)CC1)N1C(=O)CC2(CCCC2)CC1=O
5 |  |  | 3800 | 1100 | 24 | 5.6 | O=C1CC2(CCCC2)CC(=O)N1CCN1CCN(c2ccc(F)cc2F)CC1
6 | 2200 | 91 | 620 | 255 | 54 | 14 | O=C1CC2(CCCC2)CC(=O)N1CCN1CCN(c2ccc(F)cc2)CC1
7 | 120 | 8.1 |  | 54 |  | 0.95 | O=C1CC2(CCCC2)CC(=O)N1CCN1CCN(c2cc(F)ccc2F)CC1
8 |  |  |  |  |  | 124 | C[C@@H](CN1CCN(c2cc(F)c(F)cc2F)CC1)N1C(=O)CC2(CCCC2)CC1=O

Row | SMILES | Ki (D(2) dopamine receptor) [nM] | Ki (D(3) dopamine receptor) [nM] | Ki [1] [nM] | Ki [2] [nM] | Ki [3] [nM] | Ki [4] [nM]
9 | COc1ccccc1N1CCN(CCN2C(=O)CC3(CCCC3)CC2=O)CC1 [BMY-7378] | 14 | 3.1 |  |  | 0.46 | 
